Reference: ChEMBL document CHEMBL5030527, “Novel carbohydrate-based sulfonamide derivatives as selective carbonic anhydrase II inhibitors: Synthesis, biological and molecular docking analysis” (Bioorg Med Chem Lett, 2021)

How the values were obtained:
[1] = Solubility of the compound; format: physicochemical
Carbonic anhydrase 9 = Carbonic anhydrase 9 (Homo sapiens, UniProt Q16790); test: Inhibition of recombinant human carbonic anhydrase 9 using 4-nitrophenylacetate as substrate
[2] = Cytotoxicity against HCEC assessed as […] cell viability at 1% concentration by MTT assay relative to control; format: functional, Homo sapiens
[3] = Cytotoxicity against HCEC assessed as reduction in cell viability at 2% concentration by MTT assay relative to control; format: functional, Homo sapiens

solubility [1] [%] | IC50 (Carbonic anhydrase 9) [nM] | Compound | Activity [2] [%] | Activity [3] [%]
0.05 |  | CCN[C@H]1CN(CCCOC)S(=O)(=O)c2sc(S(N)(=O)=O)cc21 [BRINZOLAMIDE] |  | 
2.3 | 152 | CCO[C@@H]1O[C@H](CO)[C@@H](O)[C@H](O)[C@H]1NC(=O)c1ccc(S(N)(=O)=O)cc1 | 80 | 77
 | 24000 | NS(=O)(=O)c1ccc(C(=O)O)cc1 [CARZENIDE] |  | 
0.21 |  | CC(=O)Nc1nnc(S(N)(=O)=O)s1 [ACETAZOLAMIDE] |  | 

The remaining lines, values behind:

Compound | solubility [1] [%] | IC50 (Carbonic anhydrase 9) [nM] | Activity [2] [%] | Activity [3] [%]
CC(=O)N[C@@H]1O[C@H](CO)[C@@H](O)[C@H](O)[C@H]1NC(=O)c1ccc(S(N)(=O)=O)cc1 | 2.5 | 227 | 80 | 77
CC(C)O[C@@H]1O[C@H](CO)[C@@H](O)[C@H](O)[C@H]1NC(=O)c1ccc(S(N)(=O)=O)cc1 | 2 | 142 | 80 | 77
CCN[C@H]1C[C@H](C)S(=O)(=O)c2sc(S(N)(=O)=O)cc21 [DORZOLAMIDE] | 0.67 |  |  | 
CCC(=O)N[C@@H]1O[C@H](CO)[C@@H](O)[C@H](O)[C@H]1NC(=O)c1ccc(S(N)(=O)=O)cc1 | 2.5 | 276 | 80 | 77
CO[C@@H]1O[C@H](CO)[C@@H](O)[C@H](O)[C@H]1NC(=O)c1ccc(S(N)(=O)=O)cc1 | 2.5 | 90 | 80 | 77
CCCO[C@@H]1O[C@H](CO)[C@@H](O)[C@H](O)[C@H]1NC(=O)c1ccc(S(N)(=O)=O)cc1 | 2 | 241 | 80 | 77
